Experimental data published in patent US11459327B1, “Cycloalkyl and hetero-cycloalkyl inhibitors, preparation methods therefor, and use thereof” (Suzhou Zelgen Biopharmaceuticals Co., Ltd., priority 2019, dated 2022).
pIC50: −log10 of the molar value.

Key:
[1] = tested on: NCI-H358(KRAS^G12C mutation) cells; assay: Cell assay of antiproliferative activity (Celltiter-Glo, 5 days) against NCI-H358 cells; assay type: cell-based; settings: 5 days incubation
Protocol: (§1) Cell assay of antiproliferative activity of compounds against NCI-H358(KRAS^G12C mutation) and A549(KRAS^G12S mutation) cells.
(§2) 40 μl phosphate buffer was added to the outer wells of the 384 microplate, and 40 μl cell suspension to be tested was added to the other wells. Then the microplate was incubated in a carbon dioxide incubator overnight.
(§3) The compounds to be tested were gradiently diluted, each compound was performed 10 concentration gradients (diluted from 50 μM to 0.003 μM) and added 100 nL to the corresponding wells in the microplate. After addition, 40 μl of phosphate buffer was added to each well in rows A and P and columns 1 and 24, and then the microplate was incubated in a carbon dioxide incubator for 5 days.
(§4) 20 μL of Promega Celltiter-Glo reagent was added to each well of the microplate, and then the luminescence signal was stabilized by oscillating at room temperature for 10 min. Then PekinElmer Envision multi-label analyzer was used to read.
(§5) Finally, GraphPad Prism software was used to calculate the IC50 value of the compound and the fitting curve was drawn.
(§6) Anti-proliferative activity of the compounds of the present invention against NCI-H358(KRAS^G12C mutation) and A549(KRAS^G12S mutation) cells were shown in Table 1.

[2] = tested on: A549(KRAS^G12S mutation) cells; assay: Cell assay of antiproliferative activity (Celltiter-Glo, 5 days) against A549 cells; assay type: cell-based; settings: 5 days incubation
Protocol: as §1, §2, §3, §4, §5, §6

With `C=CC(=O)N1CCN(c2nc(OC[C@@H](COC)N(C)C3CCC3)nc3c2CCN(c2cccc4cccc(C)c24)C3)CC1CC#N` (stereo partly drawn) [Example 1, 2-(1-acroloyl-4-(2-((R)-2-(cyclobutyl(methyl)amino)-3-methoxypropoxy)-7-(8-methylnaphthalen-1-yl)-5,6,7,8-tetrahydropyrido[3,4-d]pyrimidin-4-yl)piperazin-2-yl) acetonitrile] the pIC50 ([1]; Homo sapiens, NCI-H358, 120 h) was 6.66 and the pIC50 ([2]; Homo sapiens, 120 h) was 5.15.

Compound `C=CC(=O)N1CCN(c2nc(OCC3(CN(C)C)CC3)nc3c2CCN(c2cccc4cccc(Cl)c24)C3)CC1CC#N` (stereo not drawn) [Example 2, 2-(1-acroloyl-4-(7-(8-chloronaphthalen-1-yl)-2-((1-((dimethylamino)methyl)cyclopropyl)methoxyl)-5,6,7,8-tetrahydropyrido[3,4-d]pyrimidin-4-yl)piperazin-2-yl) acetonitrile] has a pIC50 ([1]; Homo sapiens, NCI-H358, 120 h) of 8.11 and a pIC50 ([2]; Homo sapiens, 120 h) of 5.37.

`C=CC(=O)N1CCN(c2nc(OCC3(CN(C)C)CCC3)nc3c2CCN(c2cccc4cccc(Cl)c24)C3)CC1CC#N` (stereo not drawn) [Example 3, 2-(1-acroloyl-4-(7-(8-chloronaphthalen-1-yl)-2-((1-((dimethylamino)methyl)cyclobutyl)methoxyl)-5,6,7,8-tetrahydropyrido[3,4-d]pyrimidin-4-yl)piperazin-2-yl) acetonitrile] gave a pIC50 ([1]; Homo sapiens, NCI-H358, 120 h) of 7.41 and a pIC50 ([2]; Homo sapiens, 120 h) of 5.15.

Compound `C=CC(=O)N1CCN(c2nc(OCCN(C)CC3(F)CC3)nc3c2CCN(c2cccc4cccc(C)c24)C3)CC1CC#N` (stereo not drawn) [Example 4] has a pIC50 [1] of 6.68 and a pIC50 ([2]; Homo sapiens, 120 h) of 5.02.

Compound `C=CC(=O)N1CCN(c2nc(OCCN(CCOC)C3CCC3)nc3c2CCN(c2cccc4cccc(Cl)c24)C3)CC1CC#N` (stereo not drawn) [Example 5] has a pIC50 ([1]; Homo sapiens, NCI-H358, 120 h) of 7.22 and a pIC50 ([2]; Homo sapiens, 120 h) of 5.15.

Compound `C=CC(=O)N1CCN(c2nc(OCCN(C)CC3CC3(F)F)nc3c2CCN(c2cccc4cccc(Cl)c24)C3)CC1CC#N` (stereo not drawn) [Example 6] has a pIC50 ([1]; Homo sapiens, NCI-H358, 120 h) of 6.96 and a pIC50 ([2]; Homo sapiens, 120 h) of 5.00.

Work on `C=CC(=O)N1CCN(c2nc(OCCN(C)C3COC3)nc3c2CCN(c2cccc4cccc(C)c24)C3)CC1CC#N` (stereo not drawn) [Example 7, 2-(1-acroloyl-4-(2-(2-(methyl(cyclobutoxy-3-yl)amino)ethyoxyl)-7-(8-methylnaphthalen-1-yl)-5,6,7,8-tetrahydropyrido[3,4-d]pyrimidin-4-yl)piperazin-2-yl) acetonitrile] yielded a pIC50 ([1]; Homo sapiens, NCI-H358, 120 h) of 7.14 and a pIC50 ([2]; Homo sapiens, 120 h) of 5.09.

Compound `C=CC(=O)N1CCN(c2nc(OC[C@H](CC)N(C)C3CCC3)nc3c2CCN(c2cccc4cccc(Cl)c24)C3)CC1CC#N` (stereo partly drawn) [Example 8, 2-(1-acroloyl-4-(7-(8-chloronaphthalen-1-yl)-2-((S)-2-(cyclobutyl (methyl)amino)butyloxy)-5,6,7,8-tetrahydropyrido[3,4-d]pyrimidin-4-yl)piperazin-2-yl) acetonitrile] has a pIC50 ([1]; Homo sapiens, NCI-H358, 120 h) of 6.89 and a pIC50 ([2]; Homo sapiens, 120 h) of 5.15.

For `C=CC(=O)N1CCN(c2nc(OC[C@H](C(C)C)N(C)C3CCC3)nc3c2CCN(c2cccc4cccc(Cl)c24)C3)CC1CC#N` (stereo partly drawn) [Example 9, 2-(1-acroloyl-4-(7-(8-chloronaphthalen-1-yl)-2-((S)-2-(cyclobutyl(methyl)amino)-3-methylbutyloxy)-5,6,7,8-tetrahydropyrido[3,4-d]pyrimidin-4-yl)piperazin-2-yl) acetonitrile], the pIC50 ([1]; Homo sapiens, NCI-H358, 120 h) was 6.80 and the pIC50 ([2]; Homo sapiens, 120 h) was 4.75.

In the case of `C=CC(=O)N1CCN(c2nc(OCCN(CC(F)(F)F)C3CCC3)nc3c2CCN(c2cccc4cccc(Cl)c24)C3)CC1CC#N` (stereo not drawn) [Example 10, 2-(1-acroloyl-4-(7-(8-chloronaphthalen-1-yl)-2-(2-(cyclobutyl(2,2,2-trifluoroethyl)amino)ethoxy)-5,6,7,8-tetrahydropyrido[3,4-d]pyrimidin-4-yl)piperazin-2-yl) acetonitrile], the pIC50 ([1]; Homo sapiens, NCI-H358, 120 h) was 5.19 and the pIC50 ([2]; Homo sapiens, 120 h) was 4.76.

With `C=C(F)C(=O)N1CCN(c2nc(OCCN(C)C3CCC3)nc3c2CCN(c2cccc4cccc(Cl)c24)C3)CC1CC#N` (stereo not drawn) [Example 11, 2-(4-(7-(8-chloronaphthalen-1-yl)-2-(2-(cyclobutyl(methyl)amino)ethoxy)-5,6,7,8-tetrahydropyrido[3,4-d]pyrimidin-4-yl)-1-(2-fluoroacroloyl)piperazin-2-yl) acetonitrile] the pIC50 ([1]; Homo sapiens, NCI-H358, 120 h) was 6.96 and the pIC50 ([2]; Homo sapiens, 120 h) was 5.49.

In the case of `C=C(F)C(=O)N1CCN(c2nc(OC[C@H](C)N(C)C3CCC3)nc3c2CCN(c2cccc4cccc(Cl)c24)C3)CC1CC#N` (stereo partly drawn) [Example 12], the pIC50 ([1]; Homo sapiens, NCI-H358, 120 h) was 6.85 and the pIC50 ([2]; Homo sapiens, 120 h) was 5.64.

For `C=CC(=O)N1CCN(c2nc(O[C@@H]3CCC[C@@H]3N(C)C)nc3c2CCN(c2cccc4cccc(Cl)c24)C3)CC1CC#N` (stereo partly drawn) [Example 15, 2-(1-acroloyl-4-(7-(8-chloronaphthalen-1-yl)-2-(((cis)-2-(dimethylamino)cyclopentyl)oxy)-5,6,7,8-tetrahydropyrido[3,4-d]pyrimidin-4-yl)piperazin-2-yl) acetonitrile], the pIC50 ([1]; Homo sapiens, NCI-H358, 120 h) was 7.05 and the pIC50 ([2]; Homo sapiens, 120 h) was 4.87.

`C=CC(=O)N1CCN(c2nc(OCC3(CN(C)C)COC3)nc3c2CCN(c2cccc4cccc(Cl)c24)C3)CC1CC#N` (stereo not drawn) [Example 19, 2-(1-acroloyl-4-(7-(8-chloronaphthalen-1-yl)-2-((3-((dimethylamino)methyl)oxetan-3-yl)methoxyl)-5,6,7,8-tetrahydropyrido[3,4-d]pyrimidin-4-yl)piperazin-2-yl) acetonitrile] was tested, and the pIC50 [1] was 8.34 and the pIC50 [2] was 5.05.

Work on `C=CC(=O)N1CCN(c2nc(OCC3(COC)CC3)nc3c2CCN(c2cccc4cccc(Cl)c24)C3)CC1CC#N` (stereo not drawn) [Example 20, 2-(1-acroloyl-4-(7-(8-chloronaphthalen-1-yl)-2-((1-(methoxymethyl)cyclopropyl)methoxyl)-5,6,7,8-tetrahydropyrido[3,4-d]pyrimidin-4-yl)piperazin-2-yl) acetonitrile] yielded a pIC50 ([1]; Homo sapiens, NCI-H358, 120 h) of 6.06 and a pIC50 ([2]; Homo sapiens, 120 h) of 5.11.

`C=CC(=O)N1CCN(c2nc(OCCN(C)C3CCC3)nc3c2CCN(c2cccc4ccc(F)c(C)c24)C3)CC1CC#N` (stereo not drawn) [Example 21, 2-(1-acroloyl-4-(2-(2-(cyclobutyl(methyl)amino)ethyoxyl)-7-(7-fluoro-8-methylnaphthalen-1-yl)-5,6,7,8-tetrahydropyrido[3,4-d]pyrimidin-4-yl)piperazin-2-yl) acetonitrile] gave a pIC50 ([1]; Homo sapiens, NCI-H358, 120 h) of 7.57 and a pIC50 ([2]; Homo sapiens, 120 h) of 5.11.

`C=C(F)C(=O)N1CCN(c2nc(OCCN(C)C3CCC3)nc3c2CCN(c2cccc4ccc(F)c(C)c24)C3)CC1CC#N` (stereo not drawn) [Example 22, 2-(4-(2-(2-(cyclobutyl(methyl)amino)ethyoxyl)-7-(7-fluoro-8-methylnaphthalen-1-yl)-5,6,7,8-tetrahydropyrido[3,4-d]pyrimidin-4-yl)-1-(2-fluoroacroloyl)piperazin-2-yl) acetonitrile] gave a pIC50 ([1]; Homo sapiens, NCI-H358, 120 h) of 7.04 and a pIC50 ([2]; Homo sapiens, 120 h) of 5.66.

Work on `C=CC(=O)N1CCN(c2nc(OCCN(C)C3CC3)nc3c2CCN(c2cccc4cccc(C)c24)C3)CC1CC#N` (stereo not drawn) [Example 70, 2-(1-acroloyl-4-(2-(2-((cyclopropyl)(methyl)amino)ethoxy)-7-(8-methylnaphthalen-1-yl)-5,6,7,8-tetrahydropyrido[3,4-d]pyrimidin-4-yl)piperazin-2-yl) acetonitrile] yielded a pIC50 ([1]; Homo sapiens, NCI-H358, 120 h) of 6.77 and a pIC50 ([2]; Homo sapiens, 120 h) of 4.94.

For `C=CC(=O)N1CCN(c2nc(OC[C@H](C)N(C)C3CCC3)nc3c2CCN(c2cccc4cccc(C)c24)C3)C[C@@H]1CC#N` [Example 91A, 2-((S)-1-acroloyl-4-(2-((S)-2-(cyclobutyl(methyl)amino)propoxy)-7-(8-methylnaphthalen-1-yl)-5,6,7,8-tetrahydropyrido[3,4-d]pyrimidin-4-yl)piperazin-2-yl) acetonitrile], the pIC50 [1] was greater than 7.52.

`C=CC(=O)N1CCN(c2nc(OC[C@H](C)N(C)C3CCC3)nc3c2CCN(c2cccc4cccc(C)c24)C3)C[C@H]1CC#N` [Example 91B, 2-((R)-1-acroloyl-4-(2-((S)-2-(cyclobutyl(methyl)amino)propoxy)-7-(8-methylnaphthalen-1-yl)-5,6,7,8-tetrahydropyrido[3,4-d]pyrimidin-4-yl)piperazin-2-yl) acetonitrile] showed a pIC50 [1] greater than 6.00.

Compound `C=CC(=O)N1CCN(c2nc(OC[C@@H](C)N(C)C3CCC3)nc3c2CCN(c2cccc4cccc(C)c24)C3)CC1CC#N` (stereo partly drawn) [Example 92, 2-(1-acroloyl-4-(2-((R)-2-(cyclobutyl(methyl)amino)propoxy)-7-(8-methylnaphthalen-1-yl)-5,6,7,8-tetrahydropyrido[3,4-d]pyrimidin-4-yl)piperazin-2-yl) acetonitrile] has a pIC50 ([1]; Homo sapiens, NCI-H358, 120 h) greater than 7.00.

For `C=CC(=O)N1CCN(c2nc(OCCN(C)CC3CC3)nc3c2CCN(c2cccc(F)c2C(F)(F)F)C3)CC1` [Example 95], the pIC50 ([1]; Homo sapiens, NCI-H358, 120 h) was 5.20.

For `C=C(F)C(=O)N1CCN(c2nc(OCC3(CN(C)C)CC3)nc3c2C[C@H](C)N(c2cccc4ccc(F)c(Cl)c24)C3)C[C@@H]1CC#N` [Example 96A, 2-((S)-4-((S)-7-(8-chloro-7-fluoronaphthalen-1-yl)-2-((1-((dimethylamino)methyl)cyclopropyl)methoxy)-6-methyl-5,6,7,8-tetrahydropyrido[3,4-d]pyrimidin-4-yl)-1-(2-fluoroacroloyl)piperazin-2-yl) acetonitrile], the pIC50 [1] was 6.72.

In the case of `C=C(F)C(=O)N1CCN(c2nc(OCC3(CN(C)C)CC3)nc3c2C[C@@H](C)N(c2cccc4ccc(F)c(Cl)c24)C3)C[C@@H]1CC#N` [Example 96B, 2-((S)-4-((R)-7-(8-chloro-7-fluoronaphthalen-1-yl)-2-((1-((dimethylamino)methyl)cyclopropyl)methoxy)-6-methyl-5,6,7,8-tetrahydropyrido[3,4-d]pyrimidin-4-yl)-1-(2-fluoroacroloyl)piperazin-2-yl) acetonitrile], the pIC50 [1] was 8.30.
